Measurements: the supplement of paper PMC10883282
± gives the standard deviation of the averaged measurements.

System: SYO-1
Assay: relative viability vs DMSO control (72 h) (fraction); higher = more viable cells
Procedure, shortened: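 Percent growth from ATPLite readings, averaged over up to triplicate wells, was used as relative viability. Sarcoma cell lines were seeded into 384-well plates for 80–90% confluence, dosed after 24 h, and kept 72 h at 37 °C, 5% CO2. Data were rescaled to a range where 1 is full and 0 is none.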

SMILES | relative viability (2 pM) | relative viability (5 pM) | relative viability (15 pM) | relative viability (50 pM) | relative viability (0.00014 µM) | relative viability (0.00041 µM) | relative viability (0.0012 µM) | relative viability (0.0037 µM) | relative viability (0.011 µM) | relative viability (200 fM) | relative viability (600 fM) | relative viability (0.00017 µM) | relative viability (0.00051 µM) | relative viability (0.00152 µM) | relative viability (0.00457 µM) | relative viability (0.01372 µM) | relative viability (0.04115 µM) | relative viability (0.1235 µM) | relative viability (0.3704 µM) | relative viability (1.111 µM) | relative viability (3.333 µM) | relative viability (10 µM)
COc1cc2c(cc1O)CCN[C@]21CS[C@@H]2c3c(OC(C)=O)c(C)c4c(c3[C@H](COC1=O)N1[C@@H]2[C@H]2c3c(cc(C)c(OC)c3O)C[C@@H]([C@@H]1O)N2C)OCO4 [Trabectedin] | 0.489 ± 0.027 | 0.422 ± 0.039 | 0.299 ± 0.027 | 0.194 ± 0.13 | 0.0855 ± 0.18 | 0.0855 ± 0.18 | 0.26 ± 0.031 | 0.315 ± 0.0091 | 0.312 ± 0.02 | 0.4804 ± 0.002 | 0.512 ± 0.024 |  |  |  |  |  |  |  |  |  |  | 
C=CC(=O)Nc1cccc(Oc2nc(Nc3ccc(N4CCN(C)CC4)cc3)nc3ccsc23)c1 [Olmutinib] |  |  |  |  |  |  |  |  |  |  |  | 0.957 ± 0.02 | 0.985 ± 0.043 | 0.955 ± 0.018 | 0.952 ± 0.01 | 0.953 ± 0.021 | 0.9712 ± 0.0081 | 0.972 ± 0.037 | 0.933 ± 0.017 | 0.908 ± 0.045 | 0.698 ± 0.044 | -0.00933 ± 0.0049
CC(C)NC(=O)C1CCC(n2c(NC(=O)c3ccc(F)cc3)nc3ccc(CN4CCC(C(C)(C)O)CC4)cc32)CC1 (stereo not drawn) [Belizatinib] |  |  |  |  |  |  |  |  |  |  |  | 0.993 ± 0.062 | 0.983 ± 0.019 | 0.983 ± 0.055 | 1 ± 0.069 | 0.96 ± 0.03 | 0.967 ± 0.044 | 0.902 ± 0.052 | 0.798 ± 0.046 | 0.639 ± 0.046 | 0.336 ± 0.018 | 0.155 ± 0.03
CCN1CCN(Cc2ccc(Nc3ncc(F)c(-c4cc(F)c5nc(C)n(C(C)C)c5c4)n3)nc2)CC1 [Abemaciclib] |  |  |  |  |  |  |  |  |  |  |  | 0.953 ± 0.047 | 0.936 ± 0.043 | 0.925 ± 0.029 | 0.905 ± 0.051 | 0.849 ± 0.059 | 0.775 ± 0.064 | 0.657 ± 0.051 | 0.519 ± 0.039 | 0.461 ± 0.015 | 0.353 ± 0.059 | 0.0228 ± 0.055
COc1c(OCCCN2CCOCC2)ccc2c1N=C(NC(=O)c1cnc(N)nc1)N1CCN=C21 [Copanlisib] |  |  |  |  |  |  |  |  |  |  |  | 1 ± 0.011 | 0.945 ± 0.023 | 0.911 ± 0.051 | 0.79 ± 0.06 | 0.754 ± 0.041 | 0.693 ± 0.02 | 0.651 ± 0.052 | 0.52 ± 0.02 | 0.374 ± 0.012 | 0.171 ± 0.0084 | 0.0829 ± 0.006
Cc1nc(-c2cn3c(n2)-c2ccc(-c4cnn(C(C)(C)C(N)=O)c4)cc2OCC3)n(C(C)C)n1 [Taselisib] |  |  |  |  |  |  |  |  |  |  |  | 0.9262 ± 0.0077 | 0.924 ± 0.029 | 0.924 ± 0.035 | 0.895 ± 0.051 | 0.864 ± 0.042 | 0.794 ± 0.053 | 0.759 ± 0.041 | 0.721 ± 0.046 | 0.684 ± 0.046 | 0.61 ± 0.034 | 0.476 ± 0.033
O=C(Cc1ccc(-c2ccc(OCCN3CCOCC3)cc2)cn1)NCc1ccccc1 [KX2-391] |  |  |  |  |  |  |  |  |  |  |  | 1 ± 0.039 | 0.973 ± 0.038 | 0.958 ± 0.017 | 0.952 ± 0.042 | 0.917 ± 0.034 | 0.673 ± 0.027 | 0.295 ± 0.013 | 0.309 ± 0.011 | 0.324 ± 0.015 | 0.324 ± 0.011 | 0.357 ± 0.011
C[C@@H]1COCCN1c1cc(-c2ccnn2C)c2ccnc(-c3ccn[nH]3)c2n1 |  |  |  |  |  |  |  |  |  |  |  | 0.9163 ± 0.0052 | 0.928 ± 0.028 | 0.911 ± 0.043 | 0.903 ± 0.06 | 0.799 ± 0.07 | 0.627 ± 0.044 | 0.415 ± 0.03 | 0.286 ± 0.018 | 0.199 ± 0.0027 | 0.116 ± 0.0028 | 0.0976 ± 0.0066
Cc1cnc(Nc2ccc(OCCN3CCCC3)cc2)nc1Nc1cccc(S(=O)(=O)NC(C)(C)C)c1 [Fedratinib] |  |  |  |  |  |  |  |  |  |  |  | 0.982 ± 0.04 | 0.943 ± 0.078 | 0.941 ± 0.09 | 0.933 ± 0.037 | 0.898 ± 0.053 | 0.843 ± 0.027 | 0.748 ± 0.066 | 0.496 ± 0.052 | 0.132 ± 0.0092 | -0.0159 ± 0.0034 | -0.0172 ± 0.0037
CC(C)N1CCN(Cc2cnc(-c3cc(-c4cccc5[nH]ccc45)cc4[nH]ncc34)o2)CC1 [Nemiralisib] |  |  |  |  |  |  |  |  |  |  |  | 1.02 ± 0.013 | 0.981 ± 0.046 | 0.981 ± 0.036 | 0.974 ± 0.049 | 0.981 ± 0.025 | 0.991 ± 0.02 | 0.9659 ± 0.0068 | 0.968 ± 0.017 | 0.882 ± 0.025 | 0.697 ± 0.028 | -0.0515 ± 0.012
Cc1ccc(NC(=O)c2ccc(CN3CCN(C)CC3)cc2)cc1Nc1nc(-c2cccnc2)cs1 [Masitinib] |  |  |  |  |  |  |  |  |  |  |  | 1.04 ± 0.023 | 1.02 ± 0.02 | 1.01 ± 0.027 | 1.01 ± 0.026 | 0.974 ± 0.026 | 0.916 ± 0.039 | 0.801 ± 0.021 | 0.676 ± 0.032 | 0.553 ± 0.038 | 0.242 ± 0.033 | -0.0235 ± 0.0061
CCc1cc2c(cc1N1CCC(N3CCOCC3)CC1)C(C)(C)c1[nH]c3cc(C#N)ccc3c1C2=O [Alectinib] |  |  |  |  |  |  |  |  |  |  |  | 0.979 ± 0.024 | 0.983 ± 0.032 | 0.982 ± 0.058 | 0.975 ± 0.059 | 0.99 ± 0.072 | 0.98 ± 0.031 | 0.972 ± 0.081 | 0.986 ± 0.051 | 1 ± 0.05 | 0.984 ± 0.045 | 1.03 ± 0.034
COc1cc2nccc(Oc3ccc(NC(=O)Nc4cc(C)on4)c(Cl)c3)c2cc1OC [Tivozanib] |  |  |  |  |  |  |  |  |  |  |  | 0.97 ± 0.049 | 0.952 ± 0.04 | 0.935 ± 0.051 | 0.941 ± 0.023 | 0.887 ± 0.051 | 0.796 ± 0.053 | 0.765 ± 0.02 | 0.706 ± 0.03 | 0.618 ± 0.065 | 0.523 ± 0.025 | 0.393 ± 0.027
